According to patent publication US11753378B2, “Ketamine compounds and processes for making and using them” (Zevra Therapeutics, Inc., priority 2021, dated 2023):

Tests used:
[1] = Pharmacokinetics of ketamine and norketamine in plasma after intranasal administration
[2] = Pharmacokinetics of ketamine and norketamine in plasma after oral gavage; settings: for norketamine exposure relative to ketamine exposure compared to unconjugated ketamine / release of ketamine compared to unconjugated ketamine: in words; for release of ketamine compared to unconjugated ketamine: administered orally
NMDA receptor = settings: cited from earlier work
[3] = analyte ketamine, oral, mean conjugate parameter/mean comparator parameter
[4] = analyte norketamine, oral, mean conjugate parameter/mean comparator parameter
[5] = oral gavage, ketamine % parameter/norketamine % parameter

For `CCOC(=O)CN(C)C(=O)c1ccc[n+](COC(=O)N(C)C2(c3ccccc3Cl)CCCCC2=O)c1.[Cl-]` (racemic) [9b, KTM-CO2CH2-nicotinoyl-Sar(Et)], which “% AUC0-1 hr, relative intranasal bioavailability of ketamine vs study comparator (Ketamine HCl)” value ([1]; analyte ketamine, intranasal, mean conjugate parameter/mean comparator parameter) is on record?
Its value is 68.1%.

And the “% Cmax, relative intranasal bioavailability of ketamine vs study comparator (Ketamine HCl)” value ([1]; analyte ketamine, intranasal, mean conjugate parameter/mean comparator parameter, 10k: time course stopped at 0.5 hours)?
The value was 62.0%.

And the “% AUC0-1 hr, relative intranasal bioavailability of norketamine vs study comparator (Ketamine HCl)” value ([1]; analyte norketamine, intranasal, mean conjugate parameter/mean comparator parameter)?
The value was 39.5%.

And the “% Cmax, relative intranasal bioavailability of norketamine vs study comparator (Ketamine HCl)” value ([1]; analyte norketamine, intranasal, mean conjugate parameter/mean comparator parameter, 10k: time course stopped at 0.5 hours)?
The value was 37.1%.

What about the “% Exposure Ratio PO:IN, Cmax” value ([1]; ketamine % parameter PO/ketamine % parameter IN) of the same compound?
Its value is 2.00.

And the “% Exposure Ratio PO:IN, AUC” value ([1]; ketamine % parameter PO/ketamine % parameter IN, AUC0-4 h for PO and AUC0-1 h for IN)?
The value was 1.80.

What about the “% AUC0-4 hr, relative oral bioavailability of ketamine vs study comparator (Ketamine HCl)” value [2, 3] of the same compound?
The value was 123%.

What about the “% Cmax, relative oral bioavailability of ketamine vs study comparator (Ketamine HCl)” value [2, 3] of the same compound?
Its value is 124%.

What about the “% AUC0-4 hr, relative oral bioavailability of norketamine vs study comparator (Ketamine HCl)” value [2, 4] of the same compound?
Its value is 62.7%.

And the “% Cmax, relative oral bioavailability of norketamine vs study comparator (Ketamine HCl)” value [2, 4]?
Its value is 66.9%.

What about the “% Exposure Ratio Ketamine:Norketamine, AUC0-4 hr” value [2, 5] of the same compound?
The value was 1.96.

And the “% Exposure Ratio Ketamine:Norketamine, Cmax” value [2, 5]?
Its value is 1.85.

What about the “norketamine exposure relative to ketamine exposure compared to unconjugated ketamine” value ([2]; oral) of the same compound?
The value was “reduced norketamine exposure relative to ketamine exposure”.

With `CN[C@]1(c2ccccc2Cl)CCCCC1=O` (single isomer, unassigned) [S(+) isomer, reference compound] as the compound, how does the “NMDA receptor antagonist potency relative to the R(−) isomer” value (NMDA receptor; background statement) read?
The value was “approximately three to four times that of the R(−) isomer”.

Which “norketamine exposure relative to ketamine exposure compared to unconjugated ketamine” value ([2]; oral) does the source give for `CN(C(=O)OCOC(=O)c1ccncc1)C1(c2ccccc2Cl)CCCCC1=O.Cl` (stereo not shown) [3b, Isonicotinate-CH2OCO-KTM HCl] here?
Its value is “reduced norketamine exposure relative to ketamine exposure”.

With `CC(C)[C@H](NC(=O)c1ccc[n+](COC(=O)N(C)C2(c3ccccc3Cl)CCCCC2=O)c1)C(=O)O` (stereo partly shown) [10d, KTM-CO2CH2-nicotinoyl-Val] as the compound, how does the “norketamine exposure relative to ketamine exposure compared to unconjugated ketamine” value ([2]; oral) read?
The value was “reduced norketamine exposure relative to ketamine exposure”.

Which “norketamine exposure relative to ketamine exposure compared to unconjugated ketamine” value ([2]; oral) does the source give for `CC[C@H](C)[C@H](NC(=O)c1ccc[n+](COC(=O)N(C)C2(c3ccccc3Cl)CCCCC2=O)c1)C(=O)O` (stereo partly shown) [10e, KTM-CO2CH2-nicotinoyl-Ile] here?
The value was “reduced norketamine exposure relative to ketamine exposure”.

With `CN(C(=O)OC[n+]1cccc(C(=O)N2CCC[C@H]2C(=O)O)c1)C1(c2ccccc2Cl)CCCCC1=O` (stereo partly shown) [10f, KTM-CO2CH2-nicotinoyl-Pro] as the compound, how does the “norketamine exposure relative to ketamine exposure compared to unconjugated ketamine” value ([2]; oral) read?
Its value is “reduced norketamine exposure relative to ketamine exposure”.

With `CN(C(=O)OC[n+]1cccc(C(=O)N[C@@H](CCCCN)C(=O)O)c1)C1(c2ccccc2Cl)CCCCC1=O` (stereo partly shown) [10g, KTM-CO2CH2-nicotinoyl-Lys] as the compound, how does the “release of ketamine compared to unconjugated ketamine” value [2] read?
The value was “extended or delayed release”.

Which “norketamine exposure relative to ketamine exposure compared to unconjugated ketamine” value ([2]; oral) does the source give for `CN(C(=O)OC[n+]1cccc(C(=O)N[C@@H](CCC(N)=O)C(=O)O)c1)C1(c2ccccc2Cl)CCCCC1=O` (stereo partly shown) [10k, KTM-CO2CH2-nicotinoyl-Gln] here?
Its value is “reduced norketamine exposure relative to ketamine exposure”.

With `CSCC[C@H](NC(=O)c1ccc[n+](COC(=O)N(C)C2(c3ccccc3Cl)CCCCC2=O)c1)C(=O)O` (stereo partly shown) [10s, KTM-CO2CH2-nicotinoyl-Met] as the compound, how does the “norketamine exposure relative to ketamine exposure compared to unconjugated ketamine” value ([2]; oral) read?
Its value is “reduced norketamine exposure relative to ketamine exposure”.

What does the source list for `CN(CC(=O)O)C(=O)c1cc[n+](COC(=O)N(C)C2(c3ccccc3Cl)CCCCC2=O)cc1` (stereo not shown) [11b, KTM-CO2CH2-isonicotinoyl-Sar]?
release of ketamine compared to unconjugated ketamine [2]: extended or delayed release; norketamine exposure relative to ketamine exposure compared to unconjugated ketamine ([2]; oral): reduced norketamine exposure relative to ketamine exposure

Which “norketamine exposure relative to ketamine exposure compared to unconjugated ketamine” value ([2]; oral) does the source give for `CC(C)[C@H](NC(=O)c1ccc[n+](COC(=O)N(C)[C@]2(c3ccccc3Cl)CCCCC2=O)c1)C(=O)O` [S-10d, (S)-KTM-CO2CH2-nicotinoyl-Val] here?
Its value is “reduced norketamine exposure relative to ketamine exposure”.

For `NC1(c2ccccc2Cl)CCCCC1=O` (stereo not shown) [norketamine], which “NMDA receptor antagonist potency compared to ketamine” value (NMDA receptor; statement in words) is on record?
Its value is “less potent antagonist”.
